Consider 13 compounds from patent US20240109918A1, “HETEROCYCLIC COMPOUNDS AND USES THEREOF” (Kumquat Biosciences Inc., priority 2022, published 2024).

Experiment [1] concerns the target T1, KRASG12D (Homo sapiens, UniProt P01116, G12D).
T1 construct: made in house; host or cells: E. coli BL21 (DE3)
Nature of the experiment: Bio-Biochem-PPI-HTRF Ras-SOS1 interaction assay (KRAS G12D). As to conditions: 5 nM. Format: biochemical. In outline: (§1)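 HTRF readout (ex 337 nm; em 620 and 665 nm) after ≥~10 min incubation; IC50 fitted from 665/620 ratio. GST-K-Ras wt or G12D plus anti-GST-Eu(K), His-hSOS1 plus anti-6His-XL665; duplicate dilutions, 10 μM top.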
A general note: TR-FRET usually uses a lanthanide donor and a delayed reading to cut background.

Experiment [2] addresses T2, KRASwt (Homo sapiens, UniProt P01116).
T2 construct: made in house; host or cells: E. coli BL21 (DE3)
Nature of the experiment: Bio-Biochem-PPI-HTRF Ras-SOS1 interaction assay (KRAS wt). It is filed as biochemical. As to conditions: 5 nM. In outline: as §1

T1 sequence (P01116 1-188 isoform P01116-2 G12D): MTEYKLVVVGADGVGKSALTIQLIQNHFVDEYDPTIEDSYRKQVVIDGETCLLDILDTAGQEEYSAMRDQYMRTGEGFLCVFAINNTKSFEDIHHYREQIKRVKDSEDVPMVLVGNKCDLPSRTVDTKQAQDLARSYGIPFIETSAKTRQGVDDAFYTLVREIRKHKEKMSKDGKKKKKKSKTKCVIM
T2 sequence (P01116 1-188 isoform P01116-2): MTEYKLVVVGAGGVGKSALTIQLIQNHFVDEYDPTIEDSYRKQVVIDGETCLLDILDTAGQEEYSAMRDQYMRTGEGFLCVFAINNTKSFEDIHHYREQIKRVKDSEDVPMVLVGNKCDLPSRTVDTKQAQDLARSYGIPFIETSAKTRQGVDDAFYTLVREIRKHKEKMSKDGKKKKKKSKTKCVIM

As usually defined, the IC50 is the concentration needed to halve the response being measured. Low values mean inhibition by little substance, high ones a need for much substance. Take `Nc1nc2c(-c3c(Cl)cc4c(N5CCC6(CC5)CN(C(=O)C(F)F)C6)nc(OC[C@@]56CCCN5C[C@H](F)C6)nc4c3F)ccc(F)c2s1` [compound 139, 1-(7-(7-(2-amino-7-fluorobenzo[d]thiazol-4-yl)-6-chloro-8-fluoro-2-(((2R,7aS)-2-fluorotetrahydro-1H-pyrrolizin-7a(5H)-yl)methoxy)quinazolin-4-yl)-2,7-diazaspiro[3.5]nonan-2-yl)-2,2-difluoroethan-1-one]: the IC50 in experiment [1] and in experiment [2] was below 5 µM each time.
Regarding `N#Cc1c(N)sc2c(F)ccc(-c3c(Cl)cc4c(N5CCC6(CN(C(=O)C7CC7(F)F)C6)C5)nc(OC[C@@]56CCCN5C[C@H](F)C6)nc4c3F)c12` (stereo partly drawn) [compound 143, 2-amino-4-(6-chloro-4-(2-(2,2-difluorocyclopropane-1-carbonyl)-2,6-diazaspiro[3.4]octan-6-yl)-8-fluoro-2-(((2R,7aS)-2-fluorotetrahydro-1H-pyrrolizin-7a(5H)-yl)methoxy)quinazolin-7-yl)-7-fluorobenzo[b]thiophene-3-carbonitrile], the IC50 in experiment [1] and in experiment [2] was below 5 µM throughout.
For the compound `CN(C)CC(=O)N1CC2(CCCN(c3nc(OC[C@@]45CCCN4C[C@H](F)C5)nc4c(F)c(-c5ccc(F)c6sc(N)c(C#N)c56)c(Cl)cc34)C2)C1` [compound 144, 2-amino-4-(6-chloro-4-(2-(dimethylglycyl)-2,6-diazaspiro[3.5]nonan-6-yl)-8-fluoro-2-(((2R,7aS)-2-fluorotetrahydro-1H-pyrrolizin-7a(5H)-yl)methoxy)quinazolin-7-yl)-7-fluorobenzo[b]thiophene-3-carbonitrile], the IC50 in experiment [1] and in experiment [2] was below 5 µM in each case.
In the case of `N#Cc1c(N)sc2c(F)ccc(-c3c(Cl)cc4c(N5CCCC6(CNC6)C5)nc(OC[C@@]56CCCN5C[C@H](F)C6)nc4c3F)c12` [compound 147, 2-amino-4-(6-chloro-8-fluoro-2-(((2R,7aS)-2-fluorotetrahydro-1H-pyrrolizin-7a(5H)-yl)methoxy)-4-(2,6-diazaspiro[3.5]nonan-6-yl)quinazolin-7-yl)-7-fluorobenzo[b]thiophene-3-carbonitrile], the IC50 in experiment [1] and in experiment [2] was below 5 µM each time.
Take `C[C@H](Oc1nc(N2CCCC3(CN(C(=O)C4CC4(F)F)C3)C2)c2cc(Cl)c(-c3ccc(F)c4sc(N)c(C#N)c34)c(F)c2n1)[C@@H]1CCCN1C` (stereo partly drawn) [compound 148, 2-amino-4-(6-chloro-4-(2-(2,2-difluorocyclopropane-1-carbonyl)-2,6-diazaspiro[3.5]nonan-6-yl)-8-fluoro-2-((S)-1-((S)-1-methylpyrrolidin-2-yl)ethoxy)quinazolin-7-yl)-7-fluorobenzo[b]thiophene-3-carbonitrile]: the IC50 in experiment [1] and in experiment [2] was below 5 µM each time.
On to `N#Cc1c(N)sc2c(F)ccc(-c3c(Cl)cc4c(N5CCCCC6(CNC6)C5)nc(OC[C@@]56CCCN5C[C@H](F)C6)nc4c3F)c12` [compound 149, 2-amino-4-(6-chloro-8-fluoro-2-(((2R,7aS)-2-fluorotetrahydro-1H-pyrrolizin-7a(5H)-yl)methoxy)-4-(2,6-diazaspiro[3.6]decan-6-yl)quinazolin-7-yl)-7-fluorobenzo[b]thiophene-3-carbonitrile], for which the IC50 in experiment [1] and in experiment [2] was below 5 µM each time.
`Nc1nc2c(-c3c(Cl)cc4c(N5CCOC6(CCNC6)C5)nc(OCC56CCCN5C[C@H](F)C6)nc4c3F)ccc(F)c2s1` (stereo partly drawn) [compound 150, 4-(6-chloro-8-fluoro-2-(((2R)-2-fluorotetrahydro-1H-pyrrolizin-7a(5H)-yl)methoxy)-4-(6-oxa-2,9-diazaspiro[4.5]decan-9-yl)quinazolin-7-yl)-7-fluorobenzo[d]thiazol-2-amine]: the IC50 in experiment [1] and in experiment [2] was below 5 µM each time.
Consider `CC(C)NC(=O)N1CC2(CC(Nc3nc(OCC45CCCN4C[C@H](F)C5)nc4c(F)c(-c5ccc(F)c6sc(N)c(C#N)c56)c(Cl)cc34)C2)C1` (stereo partly drawn) [compound 151, 6-((7-(2-amino-3-cyano-7-fluorobenzo[b]thiophen-4-yl)-6-chloro-8-fluoro-2-(((2R)-2-fluorotetrahydro-1H-pyrrolizin-7a(5H)-yl)methoxy)quinazolin-4-yl)amino)-N-isopropyl-2-azaspiro[3.3]heptane-2-carboxamide], for which the IC50 in experiment [1] and in experiment [2] was below 5 µM each time.
With `C#Cc1c(F)ccc2cc(O)cc(-c3ncc4c(N5CCCC6(CNC6)C5)nc(O[C@@H](C)[C@@H]5CCCN5C)nc4c3F)c12` [compound 152, 5-ethynyl-6-fluoro-4-(8-fluoro-2-((S)-1-((S)-1-methylpyrrolidin-2-yl)ethoxy)-4-(2,6-diazaspiro[3.5]nonan-6-yl)pyrido[4,3-d]pyrimidin-7-yl)naphthalen-2-ol], the IC50 in experiment [1] was at least 5 µM; in experiment [2], below 5 µM.
For the compound `CCN(C(=O)N1CC2(C1)CN(c1nc(OC[C@@]34CCCN3C[C@H](F)C4)nc3c(F)c(-c4ccc(F)c5sc(N)c(C#N)c45)c(Cl)cc13)CC(F)(F)O2)C(C)C` [compound 153, 8-(7-(2-amino-3-cyano-7-fluorobenzo[b]thiophen-4-yl)-6-chloro-8-fluoro-2-(((2R,7aS)-2-fluorotetrahydro-1H-pyrrolizin-7a(5H)-yl)methoxy)quinazolin-4-yl)-N-ethyl-6,6-difluoro-N-isopropyl-5-oxa-2,8-diazaspiro[3.5]nonane-2-carboxamide], the IC50 in experiment [1] and in experiment [2] was below 5 µM throughout.
With `N#Cc1c(N)sc2c(F)ccc(-c3c(Cl)cc4c(N5CCCCC6(CN(C(=O)C7CC7(F)F)C6)C5)nc(OC[C@@]56CCCN5C[C@H](F)C6)nc4c3F)c12` (stereo partly drawn) [compound 154, 2-amino-4-(6-chloro-4-(2-(2,2-difluorocyclopropane-1-carbonyl)-2,6-diazaspiro[3.6]decan-6-yl)-8-fluoro-2-(((2R,7aS)-2-fluorotetrahydro-1H-pyrrolizin-7a(5H)-yl)methoxy)quinazolin-7-yl)-7-fluorobenzo[b]thiophene-3-carbonitrile], the IC50 in experiment [1] and in experiment [2] was below 5 µM each time.
Consider `NC(=O)N1CC2(CCN(c3nc(OC[C@@]45CCCN4C[C@H](F)C5)nc4c(F)c(-c5ccc(F)c6sc(N)nc56)c(Cl)cc34)CC2)C1` [compound 157, 7-(7-(2-amino-7-fluorobenzo [d]thiazol-4-yl)-6-chloro-8-fluoro-2-(((2R,7aS)-2-fluorotetrahydro-1H-pyrrolizin-7a(5H)-yl)methoxy)quinazolin-4-yl)-2,7-diazaspiro[3.5]nonane-2-carboxamide], for which the IC50 in experiment [1] and in experiment [2] was below 5 µM throughout.
With `C#Cc1c(F)ccc2cc(O)cc(-c3ccc4c(N5CCOC6(CNC6)C5)nc(OC[C@@]56CCCN5C[C@H](F)C6)nc4c3F)c12` [compound 158, 5-ethynyl-6-fluoro-4-(8-fluoro-2-(((2R,7aS)-2-fluorotetrahydro-1H-pyrrolizin-7a(5H)-yl)methoxy)-4-(5-oxa-2,8-diazaspiro[3.5]nonan-8-yl)quinazolin-7-yl)naphthalen-2-ol], the IC50 in experiment [1] and in experiment [2] was below 5 µM throughout.
